Assay results as given in US20040024024A1, “Aromatic sulfone hydroxamates and their use as protease inhibitors” (priority 2001, published 2004).

Key:
[1] = biological target: T1, Human recombinant MMP-2 (Homo sapiens, UniProt P08253); assay: In vitro MMP inhibition, IC50 determination (fluorogenic substrate I); type: biochemical; settings: value outside parenthesis
T1 construct: made in house; host or cells: MMP-2-transfected p2AHT2 cells
T1 sequence (P08253 110-660): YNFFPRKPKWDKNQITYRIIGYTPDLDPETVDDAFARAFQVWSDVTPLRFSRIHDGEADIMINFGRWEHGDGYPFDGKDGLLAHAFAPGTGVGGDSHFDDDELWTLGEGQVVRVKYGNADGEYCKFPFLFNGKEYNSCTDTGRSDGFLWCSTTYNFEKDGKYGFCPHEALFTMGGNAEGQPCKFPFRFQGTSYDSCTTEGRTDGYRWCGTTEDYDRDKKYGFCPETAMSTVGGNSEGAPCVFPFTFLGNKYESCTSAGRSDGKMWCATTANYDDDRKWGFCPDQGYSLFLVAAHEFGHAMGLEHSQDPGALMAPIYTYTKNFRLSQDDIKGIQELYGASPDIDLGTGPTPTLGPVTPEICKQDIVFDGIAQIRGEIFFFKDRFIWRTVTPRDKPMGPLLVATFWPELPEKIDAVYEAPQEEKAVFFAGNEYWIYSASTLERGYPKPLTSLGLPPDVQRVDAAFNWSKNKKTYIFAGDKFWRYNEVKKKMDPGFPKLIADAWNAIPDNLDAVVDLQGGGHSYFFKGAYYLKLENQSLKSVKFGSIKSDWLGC
Summary of the method: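 IC50 was derived from the concentration-dependent fall in fluorescence (ex 328, em 415 nm) on Gly-Leu cleavage of 4 μM MCA/Dpa-quenched substrate I. Assays ran at room temperature in pH 7.5 Tris/NaCl/CaCl2/Brij buffer with MMP-2 activated by trypsin or APMA; inhibitors were diluted from 1% DMSO stocks.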

[2] = biological target: T2, Human recombinant MMP-13 (Homo sapiens, UniProt P45452); assay: as above; type: biochemical; settings: value outside parenthesis
T2 construct: made in house; host or cells: baculovirus / insect cells
Summary of the method: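 Fluorescence at 415 nm (excitation 328 nm) reports Gly-Leu cleavage of 4 μM quenched methoxycoumarin peptide substrate I. Human recombinant MMP-13, activated by trypsin or APMA, was incubated at room temperature with varied inhibitor concentrations in pH 7.5 Tris/NaCl/CaCl2 buffer; IC50 derived from reduced fluorescence.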

| IC50 [1] | IC50 [2] | Compound |
| --- | --- | --- |
| 24.3 nM | 2.9 nM | COCCN1CCC(C(=O)NO)(S(=O)(=O)c2ccc(OCCCc3nc(-c4ccc(Br)cc4C)no3)cc2)CC1 [Example 135] |
| 20.4 nM | 7 nM | O=C(NO)C1(S(=O)(=O)c2ccc(OCCCc3nc(C4CCCCC4)no3)cc2)CCN(C2CC2)CC1 [Example 137] |
| 3080 nM | 136 nM | Cc1cc(-c2cccc(CCCOc3ccc(S(=O)(=O)C4(C(=O)NO)CCOCC4)cc3)c2)ccc1Cl [Example 166] |
| 3430 nM | 34.3 nM | Cc1cc(-c2cccc(CCCOc3ccc(S(=O)(=O)C4(C(=O)NO)CCOCC4)cc3)c2)ccc1F [Example 168] |
| 4360 nM | 70.7 nM | O=C(NO)C1(S(=O)(=O)c2ccc(OCCCc3cccc(-c4ccc(Cl)c(Cl)c4)c3)cc2)CCOCC1 [Example 169] |
| 1610 nM | 3.3 nM | O=C(NO)C1(S(=O)(=O)c2ccc(OCCCc3cccc(-c4ccc(F)c(F)c4)c3)cc2)CCOCC1 [Example 170] |
| 2290 nM | 62.8 nM | O=C(NO)C1(S(=O)(=O)c2ccc(OCCCc3cccc(-c4ccc(Cl)cc4Cl)c3)cc2)CCOCC1 [Example 171] |
| 5160 nM | 377 nM | O=C(NO)C1(S(=O)(=O)c2ccc(OCCCc3cccc(-c4cc(Cl)cc(Cl)c4)c3)cc2)CCOCC1 [Example 172] |
| 708 nM | 21 nM | CCCCc1ccc(-c2noc(CCCOc3ccc(S(=O)(=O)C4(C(=O)NO)CCOCC4)cc3)n2)c(C)c1 [Example 183] |
| 84.7 nM | 12.4 nM | COCCN1CCC(C(=O)NO)(S(=O)(=O)c2ccc(OCCCc3nc(-c4ccc(C5(c6ccccc6)CC5)cc4)no3)cc2)CC1 [Example 185] |
| 133 nM | 7.4 nM | COCCN1CCC(C(=O)NO)(S(=O)(=O)c2ccc(OCCCc3nc(-c4cccc5ccccc45)no3)cc2)CC1 [Example 199] |

Continued, molecule first:

| Compound | IC50 [1] | IC50 [2] |
| --- | --- | --- |
| O=C(NO)C1(S(=O)(=O)c2ccc(OCCCc3nc(-c4ccc(OC(F)(F)F)cc4)no3)cc2)CCN(Cc2ccccc2)CC1 [Example 93] | 747 nM | 15.5 nM |
| CC(C)c1ccc(-c2cccc(CCOc3ccc(S(=O)(=O)C4(C(=O)NO)CCOCC4)cc3)c2)cc1 [Example 109] | 5410 nM | 152 nM |
| O=C(NO)C1(S(=O)(=O)c2ccc(OCCc3cccc(-c4cc(F)cc(F)c4)c3)cc2)CCOCC1 [Example 110] | 1200 nM | 7.6 nM |
| O=C(NO)C1(S(=O)(=O)c2ccc(OCCc3cccc(-c4cccc(F)c4)c3)cc2)CCOCC1 [Example 111] | 559 nM | 2 nM |
| O=C(NO)C1(S(=O)(=O)c2ccc(OCCc3cccc(-c4ccc(OC(F)(F)F)cc4)c3)cc2)CCOCC1 [Example 112] | 66.4 nM | 37.9 nM |
| O=C(NO)C1(S(=O)(=O)c2ccc(OCCc3cccc(-c4ccccc4Cl)c3)cc2)CCOCC1 [Example 114] | 1010 nM | 5.2 nM |
| Cc1ccccc1-c1cccc(CCOc2ccc(S(=O)(=O)C3(C(=O)NO)CCOCC3)cc2)c1 [Example 116] | 1050 nM | 11.2 nM |
| Cc1ccc(-c2cccc(CCOc3ccc(S(=O)(=O)C4(C(=O)NO)CCOCC4)cc3)c2)cc1C [Example 117] | 1740 nM | 16 nM |
| Cc1cc(-c2cccc(CCOc3ccc(S(=O)(=O)C4(C(=O)NO)CCOCC4)cc3)c2)ccc1Cl [Example 118] | 1860 nM | 29.8 nM |
| COc1ccc(-c2cccc(CCOc3ccc(S(=O)(=O)C4(C(=O)NO)CCOCC4)cc3)c2)cc1C [Example 119] | 1190 nM | 18.3 nM |
| O=C(NO)C1(S(=O)(=O)c2ccc(OCCc3cccc(-c4ccc(Cl)c(Cl)c4)c3)cc2)CCOCC1 [Example 121] | 2470 nM | 21.6 nM |
| O=C(NO)C1(S(=O)(=O)c2ccc(OCCc3cccc(-c4ccc(Cl)cc4Cl)c3)cc2)CCOCC1 [Example 124] | 2150 nM | 21.9 nM |
| O=C(NO)C1(S(=O)(=O)c2ccc(OCCc3cccc(-c4cc(Cl)cc(Cl)c4)c3)cc2)CCOCC1 [Example 126] | 3260 nM | 349 nM |
| COCCN1CCC(C(=O)NO)(S(=O)(=O)c2ccc(OCCCc3nc(-c4ccc(CC(C)C)cc4C)no3)cc2)CC1 [Example 128] | 659 nM | 23.7 nM |
| NC(=O)c1cccc(-c2noc(CCCOc3ccc(S(=O)(=O)C4(C(=O)NO)CCN(C5CC5)CC4)cc3)n2)c1 [Example 129] | 41.4 nM | 1.9 nM |
